Data from US10004777B2, “Bioactive compositions from Theacea plants and processes for their production and use” (ISP Investments Inc., priority 2004, dated 2018).

Test: Superoxide scavenging activity (xanthine oxidase / cytochrome c reduction)
Type: biochemical
Source text: Method 7: Method for Determination of Superoxide Scavenging Activity. The enzymatic system, which uses xanthine oxidase (a purified enzyme preparation produced by “Sigma”), was used to generate superoxide anions in high yield and in a controlled fashion. The conversion of xanthine to […] by this enzyme generates amounts of superoxide anions and reduction of ferricytochrome c to ferrocytochrome c was used as a sensitive measure of superoxide levels. The measurements of ferrocytochrome c level (550 nm), when tested bioactive compositions were added to the reaction system, allow for determination of their superoxide scavenging activity. The final concentrations per well were for cytochrome c 75 μM, xanthine 425 μm/L, and xanthine oxidase 10 mU/ml.

O=C(/C=C/c1ccc(O)c(O)c1)O[C@H](Cc1ccc(O)c(O)c1)C(=O)O [rosmarinic acid]
ICR50 of positive control: 26.5 µg/mL
